Laboratory results: patent publication US7265152B2 (ViroPharma Incorporated, priority 2002, dated 2007)
Where two headings read alike, the source gives them in different places.

How the values were obtained:
[1] = tested on: HCV replicon (BB7 sequence) in Huh-7-Clone A cells; test: HCV replicon assay: ELISA of NS5A protein in replicon-containing cells (Inhibition of Viral RNA Replication); format: cell-based; settings: ranges of EC50 in HCV replicon assay, read-out: Replicon
In short: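 Huh-7-Clone A cells carrying subgenomic BB7 HCV replicon (G418-selectable) incubated 72 h with compound. NS5A protein quantified by cell ELISA: glutaraldehyde fixation, anti-NS5A monoclonal plus HRP secondary, TMB read at OD 650 nm. EC50 derived from 8-point serial dilution dose curve.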

HCV NS5B = molecular target: T1, HCV NS5B (Hepatitis C virus genotype 1b, UniProt Q9WMX2); test: Inhibition of viral RNA-dependent RNA polymerase (RdRp), in vitro biochemical assay; set-up: species or system HCV genotype 1b virus (BB7); settings: HCV NS5B RdRp, BB7 genotype 1b; read-out: HCV pol-BB7 IC50
T1 construct: fusion protein, of which the carboxyl terminal 21 amino acids were removed to enhance its solubility; His tag (GSHHHHHH); made in house; host or cells: E. coli
In short: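 Purified recombinant NS5B from a genotype 1b consensus (BB7), His-tagged, E. coli-expressed, with the C-terminal 21 residues deleted. Inhibition of RdRp activity in vitro was measured, and IC50 is the concentration giving 50% inhibition.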

SMILES | EC50 ([1]; Hepatitis C virus) [µM] | IC50 (HCV NS5B) [µM] | EC50 [1] [µM]
CNC(=O)c1c(-c2ccccc2)oc2ccc(CO)cc12 [Example 118, 5-Hydroxymethyl-2-phenyl-benzofuran-3-carboxylic acid methylamide] | > 100 | 5 to 30 | –
CNC(=O)c1c(-c2ccc(F)cc2)oc2cc(N(C)CCOC)c(OC(C)C)cc12 [Example 119, 2-(4-Fluoro-phenyl)-5-isopropoxy-6-[(2-methoxy-ethyl)-methyl-amino]-benzofuran-3-carboxylic acid methylamide] | < 1 | ≤ 0.5 | –
CNC(=O)c1c(-c2ccc(F)cc2)oc2cc(N)c(OCc3ccccc3)cc12 [Example 120, 6-Amino-5-benzyloxy-2-(4-fluoro-phenyl)-benzofuran-3-carboxylic acid methylamide] | < 10 | ≤ 0.5 | –
CNC(=O)c1c(-c2occc2C)oc2ccc(OC(C)C)cc12 [Example 121, 5-Isopropoxy-2-(3-methyl-furan-2-yl)-benzofuran-3-carboxylic acid methylamide] | < 30 | 0.5 to 5 | –
CNC(=O)c1c(-c2ccc(F)cc2)oc2cc(NS(C)(=O)=O)c(OC)cc12 [Example 122, 2-(4-Fluoro-phenyl)-6-methanesulfonylamino-5-methoxy-benzofuran-3-carboxylic acid methylamide] | < 1 | ≤ 0.5 | –
CNC(=O)c1c(-c2ccc(F)cc2)oc2cc(NCC3CCCO3)c(OC(C)C)cc12 (centres unmarked) [Example 123, 2-(4-Fluoro-phenyl)-5-isopropoxy-6-[(tetrahydro-furan-2-ylmethyl)-amino]-benzofuran-3-carboxylic acid methylamide] | < 10 | ≤ 0.5 | –
CNC(=O)c1c(-c2ccc(F)cc2)oc2cc(N3CCOCC3)c(OCC3CC3)cc12 [Example 125, 5-Cyclopropylmethoxy-2-(4-fluoro-phenyl)-6-morpholin-4-yl-benzofuran-3-carboxylic acid methylamide] | < 1 | ≤ 0.5 | –
CNC(=O)c1c(-c2ccc(F)cc2)oc2cc(Cl)c(OC)cc12 [Example 126, 6-Chloro-2-(4-fluoro-phenyl)-5-methoxy-benzofuran-3-carboxylic acid methylamide] | < 1 | ≤ 0.5 | –
CCNC(=O)c1c(-c2ccccc2)oc2ccc(OC)cc12 [Example 130, 5-Methoxy-2-phenyl-benzofuran-3-carboxylic acid ethylamide] | < 10 | 5 to 30 | –
CNC(=O)c1c(-c2ccc(F)cc2)oc2cc(Nc3ccncc3)c(OC(C)C)cc12 [Example 131, 2-(4-Fluoro-phenyl)-5-isopropoxy-6-(pyridin-4-ylamino)-benzofuran-3-carboxylic acid methylamide] | < 30 | 0.5 to 5 | –
CNC(=O)c1c(-c2ccc(F)cc2)oc2cc(N3CCN(C)CC3)c(OC(C)C)cc12 [Example 132, 2-(4-Fluoro-phenyl)-5-isopropoxy-6-(4-methyl-piperazin-1-yl)-benzofuran-3-carboxylic acid methylamide] | > 30 | 5 to 30 | –
CNC(=O)c1c(-c2ccc(F)cc2)oc2cc(NS(=O)(=O)CCCCl)c(OC(C)C)cc12 [Example 133, 6-(3-Chloro-propane-1-sulfonylamino)-2-(4-fluoro-phenyl)-5-isopropoxy-benzofuran-3-carboxylic acid methylamide] | < 1 | 0.5 to 5 | –
CNC(=O)c1c(-c2ccc(F)cc2)oc2cc(N3CCCS3(=O)=O)c(OC(C)C)cc12 [Example 134, 6-(1,1-Dioxido-isothiazolidin-2-yl)-2-(4-fluoro-phenyl)-5-isopropoxy-benzofuran-3-carboxylic acid methylamide] | < 10 | 0.5 to 5 | –
CNC(=O)c1c(-c2ccc(F)cc2)oc2cc(N(C(C)C)S(C)(=O)=O)c(OC(C)C)cc12 [Example 136, 2-(4-Fluoro-phenyl)-5-isopropoxy-6-(isopropyl-methanesulfonyl-amino)-benzofuran-3-carboxylic acid methylamide] | < 1 | ≤ 0.5 | –
CNC(=O)c1c(-c2ccc(F)cc2)oc2cc(N(CC3CC3)S(C)(=O)=O)c(OC(C)C)cc12 [Example 137, 6-(Cyclopropylmethyl-methanesulfonyl-amino)-2-(4-fluoro-phenyl)-5-isopropoxy-benzofuran-3-carboxylic acid methylamide] | < 1 | ≤ 0.5 | –
CNC(=O)c1c(-c2ccc(F)cc2)oc2cc(N3CC(C)OC(C)C3)c(OC(C)C)cc12 (centres unmarked) [Example 138, 6-(2,6-Dimethyl-morpholin-4-yl)-2-(4-fluoro-phenyl)-5-isopropoxy-benzofuran-3-carboxylic acid methylamide] | < 10 | 0.5 to 5 | –
CNC(=O)c1c(-c2ccc(F)cc2)oc2cc(-c3nnn[nH]3)c(OC(C)C)cc12 [Example 139, 2-(4-Fluoro-phenyl)-5-isopropoxy-6-(1H-tetrazol-5-yl)-benzofuran-3-carboxylic acid methylamide] | > 30 | 0.5 to 5 | –
CNC(=O)c1c(-c2ccc(F)cc2)oc2cc(N3CCC(O)CC3)c(OC(C)C)cc12 [Example 140, 2-(4-Fluoro-phenyl)-6-(4-hydroxy-piperidin-1-yl)-5-isopropoxy-benzofuran-3-carboxylic acid methylamide] | < 10 | 0.5 to 5 | –
CNC(=O)c1c(-c2ccc(F)cc2)oc2cc(N3CCCC(O)C3)c(OC(C)C)cc12 (centres unmarked) [Example 141, 2-(4-Fluoro-phenyl)-6-(3-hydroxy-piperidin-1-yl)-5-isopropoxy-benzofuran-3-carboxylic acid methylamide] | < 10 | 0.5 to 5 | –
CNC(=O)c1c(-c2ccc(F)cc2)oc2cc(S(=O)(=O)N3CCOCC3)c(OC(C)C)cc12 [Example 142, 2-(4-Fluoro-phenyl)-5-isopropoxy-6-(morpholine-4-sulfonyl)-benzofuran-3-carboxylic acid methylamide] | < 10 | ≤ 0.5 | –
CNC(=O)c1c(-c2ccc(F)cc2)oc2cc(S(=O)(=O)NC)c(OC(C)C)cc12 [Example 143, 2-(4-Fluoro-phenyl)-5-isopropoxy-6-methylsulfamoyl-benzofuran-3-carboxylic acid methylamide] | > 30 | ≤ 0.5 | –
CNC(=O)c1c(-c2ccc(F)cc2)oc2cc(S(=O)(=O)N(C)C)c(OC(C)C)cc12 [Example 144, 6-Dimethylsulfamoyl-2-(4-fluoro-phenyl)-5-isopropoxy-benzofuran-3-carboxylic acid methylamide] | < 30 | ≤ 0.5 | –
CNC(=O)c1c(-c2ccc(F)cc2)oc2cc(NS(=O)(=O)C(C)C)c(OC(C)C)cc12 [Example 145, 2-(4-Fluoro-phenyl)-5-isopropoxy-6-(propane-2-sulfonylamino)-benzofuran-3-carboxylic acid methylamide] | < 10 | 0.5 to 5 | –
CNC(=O)c1c(-c2ccc(F)cc2)oc2cc(C(N)=O)c(OC(C)C)cc12 [Example 146, 2-(4-Fluoro-phenyl)-5-isopropoxy-benzofuran-3,6-dicarboxylic acid 6-amide 3-methylamide] | – | 0.5 to 5 | > 30
CNC(=O)c1c(-c2ccc(F)cc2)oc2cc(-c3cncnc3)c(OC(C)C)cc12 [Example 147, 2-(4-Fluoro-phenyl)-5-isopropoxy-6-pyrimidin-5-y1-benzofuran-3-carboxylic acid mehtylamide] | < 10 | ≤ 0.5 | –
